Assay results: BindingDB's records for doi:10.3109/14756366.2011.651465 (Dumlupinar University, 2013)

Experiments:
Carbonic anhydrase 1 = Carbonic anhydrase 1 (Homo sapiens, UniProt P00915); assay: CA Activity Assay; settings: pH 7.4; 25 °C
Procedure: (§1) CA activity was assayed in inhibition studies by following the change in absorbance at 348 nm of 4-nitrophenylacetate (NPA) to 4-nitrophenylate ion over a period of 3 min at 25°C using a spectrophotometer according to the method described by Verpoorte et al. [Verpoorte et al., J. Biol. Chem., 242:4221-4229] The enzymatic reaction, in a total volume of 1 mL, contained 50 mM Tris-SO4 buffer (pH = 7.4), 3 mM 4-nitrophenylacetate and enzyme solution. A reference measurement was done by using the same cuvette without enzyme solution. The inhibitory effects of some synthesized sulfonamide derivatives on CA enzyme activity purified from human erythrocyte were tested on three samples at each concentration used.

Carbonic anhydrase 2 = Carbonic anhydrase 2 (Homo sapiens, UniProt P00918); assay: CA Activity Assay; settings: pH 7.4; 25 °C
Procedure: as §1

Chain of Carbonic anhydrase 1 (P00915 whole entry): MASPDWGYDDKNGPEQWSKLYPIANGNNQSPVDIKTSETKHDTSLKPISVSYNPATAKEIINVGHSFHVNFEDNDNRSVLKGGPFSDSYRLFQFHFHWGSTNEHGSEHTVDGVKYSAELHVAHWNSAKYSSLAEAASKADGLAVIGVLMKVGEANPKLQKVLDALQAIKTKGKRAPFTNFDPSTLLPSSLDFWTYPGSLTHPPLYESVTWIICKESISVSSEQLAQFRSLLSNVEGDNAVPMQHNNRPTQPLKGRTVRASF

Row | Structure (SMILES) | Ki (Carbonic anhydrase 1) | Ki (Carbonic anhydrase 2)
1 | Nc1cccc(-n2nc(C(=O)Nc3ccc(S(N)(=O)=O)cc3)c(C(=O)c3ccccc3)c2-c2ccccc2)c1 [1-(3-aminophenyl)-4-benzoyl-5-phenyl-N-(4-sulfamoylphenyl)-1H-pyrazole-3-carboxamide (3)] | 108 nM | 55 nM
2 | [N-]=[N+]=Nc1cccc(-n2nc(C(=O)Nc3ccc(S(N)(=O)=O)cc3)c(C(=O)c3ccccc3)c2-c2ccccc2)c1 [1-(3-azidophenyl)-4-benzoyl-5-phenyl-N-(4-sulfamoylphenyl)-1H-pyrazole-3-carboxamide (9)] | 129 nM | 64 nM
3 | NS(=O)(=O)c1ccc(NC(=O)c2nn(-c3cccc(NN=C(C(=O)c4ccccc4)C(=O)c4ccccc4)c3)c(-c3ccccc3)c2C(=O)c2ccccc2)cc1 [4-benzoyl-1-(3-(2-(1,3-dioxo-1,3-diphenylpropan-2-ylidene)hydrazinyl)phenyl)-5-phenyl-N-(4-sulfamoylphenyl)-1H-pyrazole-3-carboxamide (6)] | 4100 nM | 1940 nM
4 | CC(=O)C(=NNc1cccc(-n2nc(C(=O)Nc3ccc(S(N)(=O)=O)cc3)c(C(=O)c3ccccc3)c2-c2ccccc2)c1)C(C)=O [4-benzoyl-1-(3-((2-hydroxy-4-oxopent-2-en-3-yl)diazenyl)phenyl)-5-phenyl-N-(4-sulfamoylphenyl)-1H-pyrazole-3-carboxamide (5)] | 160 nM | 595 nM
5 | CC(=O)/C(=N\Nc1cccc(-n2nc(C(=O)Nc3ccc(S(N)(=O)=O)cc3)c(C(=O)c3ccccc3)c2-c2ccccc2)c1)C(=O)c1ccccc1 [4-benzoyl-1-(3-((3-hydroxy-1-oxo-1-phenylbut-2-en-2-yl)diazenyl)phenyl)-5-phenyl-N-(4-sulfamoylphenyl)-1Hpyrazole-3-carboxamide (7)] | 521 nM | 166 nM
6 | NS(=O)(=O)c1ccc(NC(=O)c2nn(-c3cccc([N+](=O)[O-])c3)c(-c3ccccc3)c2C(=O)c2ccccc2)cc1 [4-benzoyl-1-(3-nitrophenyl)-5-phenyl-N-(4-sulfamoylphenyl)-1H-pyrazole-3-carboxamide (2)] | 215 nM | 337 nM
7 | CCOC(=O)/C(=N/Nc1cccc(-n2nc(C(=O)Nc3ccc(S(N)(=O)=O)cc3)c(C(=O)c3ccccc3)c2-c2ccccc2)c1)C(=O)c1ccccc1 [Ethyl-2-(2-(3-(4-benzoyl-5-phenyl-3-(4-sulfamoylphenylcarbamoyl)-1H-pyrazol-1-(phenyl)hydrazono)-3-oxo-3-phenylpropanoate (8)] | 2900 nM | 8240 nM
